Source: PubChem BioAssay (NCI)
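Interpolation was linear, between the two tested concentrations surrounding the appropriate level; five concentrations were tested over 48 hours in 96-well plates. TGI marks complete inhibition of growth.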

Tests used:
Assay in all cases: NCI-60 cell line screen, 48 h
HCT-116 colon = test system: HCT-116 colon
TK-10 renal = test system: TK-10 renal
SK-MEL-28 melanoma = test system: SK-MEL-28 melanoma
T-47D breast = test system: T-47D breast
A498 renal = test system: A498 renal
HCC-2998 colon = test system: HCC-2998 colon
SR leukemia = test system: SR leukemia
HS 578T breast = test system: HS 578T breast
RPMI-8226 leukemia = test system: RPMI-8226 leukemia
NCI-H226 lung = test system: NCI-H226 lung
SF-539 CNS = test system: SF-539 CNS
SK-OV-3 ovarian = test system: SK-OV-3 ovarian
BT-549 breast = test system: BT-549 breast
SF-295 CNS = test system: SF-295 CNS
ACHN renal = test system: ACHN renal
EKVX NSCLC = test system: EKVX NSCLC
OVCAR-5 ovarian = test system: OVCAR-5 ovarian
K-562 leukemia = test system: K-562 leukemia
SNB-75 CNS = test system: SNB-75 CNS
MCF7 breast = test system: MCF7 breast
OVCAR-8 ovarian = test system: OVCAR-8 ovarian
SF-268 CNS = test system: SF-268 CNS
HOP-62 NSCLC = test system: HOP-62 NSCLC
CCRF-CEM leukemia = test system: CCRF-CEM leukemia
COLO 205 colon = test system: COLO 205 colon
RXF 393 renal = test system: RXF 393 renal
SNB-19 CNS = test system: SNB-19 CNS
CAKI-1 renal = test system: CAKI-1 renal
UACC-62 melanoma = test system: UACC-62 melanoma
786-0 renal = test system: 786-0 renal
NCI-H522 lung = test system: NCI-H522 lung
SW-620 colon = test system: SW-620 colon
U251 CNS = test system: U251 CNS
NCI-H23 lung = test system: NCI-H23 lung
M14 melanoma = test system: M14 melanoma
KM12 colon = test system: KM12 colon
A549 NSCLC = test system: A549 NSCLC
MDA-MB-231 breast = test system: MDA-MB-231 breast
HT29 colon = test system: HT29 colon
HL-60(TB) leukemia = test system: HL-60(TB) leukemia
DU-145 prostate = test system: DU-145 prostate
UO-31 renal = test system: UO-31 renal
SN12C renal = test system: SN12C renal
SK-MEL-5 melanoma = test system: SK-MEL-5 melanoma
UACC-257 melanoma = test system: UACC-257 melanoma
MALME-3M melanoma = test system: MALME-3M melanoma
PC-3 prostate = test system: PC-3 prostate
SK-MEL-2 melanoma = test system: SK-MEL-2 melanoma
MDA-MB-435 = test system: MDA-MB-435
MOLT-4 leukemia = test system: MOLT-4 leukemia
LOX IMVI melanoma = test system: LOX IMVI melanoma
NCI/ADR-RES ovarian = test system: NCI/ADR-RES ovarian
IGROV1 ovarian = test system: IGROV1 ovarian
HCT-15 colon = test system: HCT-15 colon

Measured: TGI

OC[C@H]1N[C@H](CO)[C@@H](O)[C@H]1O
> 100 µM: all assays above
